Publication PMC9516332 (Frontiers in Oncology, 2022)

Columns and labels:
Test in all cases: Kinase panel profiling at 1 µmol/L (MSA or IMAP), percentage inhibition
Type in all cases: biochemical
[1] = biological target: panel of 255 wild-type kinases (Homo sapiens, UniProt P48730); settings: kinase CK1δ; 1 µmol/L single concentration; read-out: %-inhibition at 1 µmol/L, CK1δ
[2] = biological target: panel of 255 wild-type kinases (Homo sapiens, UniProt Q8IY84); settings: NIM1K; 1 µmol/L single concentration; read-out: %-inhibition, NIM1K
[3] = biological target: panel of 255 wild-type kinases (Homo sapiens, UniProt Q13153); settings: PAK1; 1 µmol/L single concentration; read-out: %-inhibition, PAK1
[4] = biological target: T1, panel of 255 wild-type kinases (Homo sapiens, UniProt Q8IWQ3); settings: BRSK2 kinase assay; 1 µmol/L single concentration; read-out: %-inhibition BRSK2
T1 sequence (Q8IWQ3 1-736): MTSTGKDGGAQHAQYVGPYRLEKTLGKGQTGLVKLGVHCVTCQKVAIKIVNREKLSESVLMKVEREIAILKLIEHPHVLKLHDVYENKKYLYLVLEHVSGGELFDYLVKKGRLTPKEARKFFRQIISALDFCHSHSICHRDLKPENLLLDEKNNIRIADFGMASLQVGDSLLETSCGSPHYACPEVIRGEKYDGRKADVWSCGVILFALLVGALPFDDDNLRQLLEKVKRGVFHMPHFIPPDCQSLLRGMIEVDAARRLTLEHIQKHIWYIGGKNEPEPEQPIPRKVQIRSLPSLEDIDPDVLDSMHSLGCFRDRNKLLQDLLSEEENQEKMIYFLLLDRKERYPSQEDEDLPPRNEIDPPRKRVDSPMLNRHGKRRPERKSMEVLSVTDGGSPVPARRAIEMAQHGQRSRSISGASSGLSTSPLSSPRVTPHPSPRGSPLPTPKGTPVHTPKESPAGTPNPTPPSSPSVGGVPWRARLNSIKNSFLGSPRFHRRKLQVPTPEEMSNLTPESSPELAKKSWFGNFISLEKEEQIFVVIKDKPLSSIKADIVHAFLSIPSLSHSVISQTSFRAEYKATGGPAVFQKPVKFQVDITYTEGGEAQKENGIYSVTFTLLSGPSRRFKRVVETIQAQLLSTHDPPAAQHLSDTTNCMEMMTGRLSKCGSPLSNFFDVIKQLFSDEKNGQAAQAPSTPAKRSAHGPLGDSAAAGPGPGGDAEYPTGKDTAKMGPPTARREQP

[5] = biological target: T2, panel of 255 wild-type kinases (Homo sapiens, UniProt P36888); settings: kinase FLT3; 1 µmol/L single concentration; read-out: %-inhibition at 1 µmol/L, FLT3
T2 sequence (P36888 27-993): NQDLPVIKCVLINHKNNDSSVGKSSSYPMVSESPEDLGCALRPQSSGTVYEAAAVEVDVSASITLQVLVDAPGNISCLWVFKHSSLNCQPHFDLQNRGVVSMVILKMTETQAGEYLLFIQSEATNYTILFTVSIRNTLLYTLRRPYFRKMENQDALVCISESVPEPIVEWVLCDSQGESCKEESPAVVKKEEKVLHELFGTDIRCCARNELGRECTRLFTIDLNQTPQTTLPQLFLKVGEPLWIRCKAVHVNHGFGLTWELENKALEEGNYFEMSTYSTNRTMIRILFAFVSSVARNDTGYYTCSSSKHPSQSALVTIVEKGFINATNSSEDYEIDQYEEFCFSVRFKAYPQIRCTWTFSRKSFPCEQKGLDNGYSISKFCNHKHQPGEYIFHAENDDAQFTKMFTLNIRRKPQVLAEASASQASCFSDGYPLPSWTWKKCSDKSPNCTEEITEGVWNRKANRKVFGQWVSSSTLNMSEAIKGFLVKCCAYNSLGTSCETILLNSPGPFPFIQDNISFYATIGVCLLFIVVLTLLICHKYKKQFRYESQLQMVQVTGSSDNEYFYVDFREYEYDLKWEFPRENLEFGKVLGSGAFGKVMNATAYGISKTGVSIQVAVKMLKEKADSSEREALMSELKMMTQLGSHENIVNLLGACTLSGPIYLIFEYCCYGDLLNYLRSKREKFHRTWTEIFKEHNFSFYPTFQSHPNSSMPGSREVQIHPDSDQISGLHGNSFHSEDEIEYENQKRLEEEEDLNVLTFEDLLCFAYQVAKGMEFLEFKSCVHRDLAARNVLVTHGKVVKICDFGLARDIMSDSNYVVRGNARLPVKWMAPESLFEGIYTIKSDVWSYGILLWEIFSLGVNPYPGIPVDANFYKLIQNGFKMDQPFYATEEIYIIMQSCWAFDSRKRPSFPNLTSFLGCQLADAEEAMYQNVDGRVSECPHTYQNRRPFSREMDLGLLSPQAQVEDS

[6] = biological target: panel of 255 wild-type kinases (Homo sapiens, UniProt P14616); settings: kinase IRR; 1 µmol/L single concentration; read-out: %-inhibition at 1 µmol/L, IRR
[7] = biological target: panel of 255 wild-type kinases (Homo sapiens, UniProt Q14012); settings: CaMK1α kinase assay; 1 µmol/L single concentration; read-out: %-inhibition CaMK1α
[8] = biological target: panel of 255 wild-type kinases (Homo sapiens, UniProt Q13131); settings: AMPKα1/β1/γ1 kinase assay; 1 µmol/L single concentration; read-out: %-inhibition AMPKα1/β1/γ1
[9] = biological target: panel of 255 wild-type kinases (Homo sapiens, UniProt Q96SB4); settings: kinase SRPK1; 1 µmol/L single concentration; read-out: %-inhibition at 1 µmol/L, SRPK1

Compound | inhibition at 1 µM [1] [%] | inhibition at 1 µM [2] [%] | inhibition at 1 µM [3] [%] | inhibition at 1 µM [4] [%] | inhibition at 1 µM [5] [%] | inhibition at 1 µM [6] [%] | inhibition at 1 µM [7] [%] | inhibition at 1 µM [8] [%] | inhibition at 1 µM [9] [%]
CO[C@]1(C(=O)N[C@@H](C)c2ccc(-n3cc(F)cn3)nc2)CC[C@H](c2nc(C)cc(Nc3cc(C)[nH]n3)n2)CC1 [pralsetinib] | 0.94 | 0.843 | 9 | 14 | 101 | 10 | -4.72 | 46 | -4
COc1cc2ncnc(Nc3ccc(F)c(Cl)c3)c2cc1NC(=O)/C=C/CN1CCCCC1 [dacomitinib] | -6.63 | 1.1 | 0.38 | 6.47 | 56 | 6 | -7 | -12 | -9.5
CCn1c(=O)c(-c2cc(NC(=O)Nc3ccccc3)c(F)cc2Br)cc2cnc(NC)cc21 [ripretinib] | -8 | 0.056 | 0.719 | 8 | 46 | 4.5 | -8 | -10 | -13
Cc1nc(NC(=O)N2CCC[C@H]2C(N)=O)sc1-c1ccnc(C(C)(C)C(F)(F)F)c1 [alpelisib] | 9 | -1.81 | -3.29 | 14 | 6 | 7 | -10 | -5 | 6
C=CC(=O)N1CCC([C@@H]2CCNc3c(C(N)=O)c(-c4ccc(Oc5ccccc5)cc4)nn32)CC1 [zanubrutinib] | -4 | -1.66 | -2.56 | 0.0746 | 22 | 2.69 | -0.157 | -5.51 | -6
O=C(Nc1cnn2ccc(N3CCC[C@@H]3c3cc(F)ccc3F)nc12)N1CC[C@H](O)C1 [larotrectinib] | -8 | -1.85 | -3.56 | 0.485 | 6 | 1.69 | -1.63 | -5.64 | -12
Cc1cc(Nc2ncnc3ccc(NC4=NC(C)(C)CO4)cc23)ccc1Oc1ccn2ncnc2c1 [tucatinib] | -2.17 | 1.49 | -1.11 | 7 | 48 | 3 | -5.47 | -4 | -3
FC(F)(F)c1ccc(CNc2ccc(Cc3c[nH]c4ncc(Cl)cc34)cn2)cn1 [pexidartinib] | -3.46 | -1.06 | 2 | 5.28 | 55 | 14 | -13 | -11 | -20
Cn1cnc2c(F)c(Nc3ccc(Br)cc3F)c(C(=O)NOCCO)cc21 [binimetinib] | -4 | -2.23 | 5 | -13 | 12 | -5.48 | -5 | -7 | -3.37
CN1CCN(c2ccc(C(=O)Nc3n[nH]c4ccc(Cc5cc(F)cc(F)c5)cc34)c(NC3CCOCC3)c2)CC1 [entrectinib] | -5 | -1.5 | -10 | 18 | – | 100 | -5.68 | 55 | 2.16
COC(=O)N[C@@H](C)CNc1nccc(-c2cn(C(C)C)nc2-c2cc(Cl)cc(NS(C)(=O)=O)c2F)n1 [encorafenib] | 20 | -12 | 12 | -8 | 9 | -3.65 | 2.72 | -2.31 | -5
C[C@H]1Oc2cc(cnc2N)-c2c(nn(C)c2C#N)CN(C)C(=O)c2ccc(F)cc21 [lorlatinib] | -6.46 | 1.32 | -2.12 | 36 | 13 | 78 | 1.49 | -3.58 | 5.65
CCN1CCN(c2ccc(Nc3cc(N(C)C(=O)Nc4c(Cl)c(OC)cc(OC)c4Cl)ncn3)cc2)CC1 [infigratinib] | -4.4 | -2.7 | 5 | 2.65 | – | 34 | -22 | -4 | -0.85
COc1ccc(CN2C3CC2CN(c2ccc(-c4cc(OCC(C)(C)O)cn5ncc(C#N)c45)cn2)C3)cn1 [selpercatinib] | -1.7 | -2 | -5.31 | 35 | 99 | 3 | -5.55 | 22 | -9
Cn1cnc2c(F)c(Nc3ccc(Br)cc3Cl)c(C(=O)NOCCO)cc21 [selumetinib] | -1.44 | -0.385 | 7 | 4 | 52 | 2.15 | -4.36 | -2.66 | 6
CCc1nc(C(N)=O)c(Nc2ccc(N3CCC(N4CCN(C)CC4)CC3)c(OC)c2)nc1NC1CCOCC1 [gilteritinib] | 25 | 29 | 4 | 23 | 99 | 100 | 41 | 0.625 | -8
